Results taken from patent publication US20080058293A1, “Quinoline Derivates and Their Use in Therapy” (priority 2003, published 2008).
Where a name gives a salt, the structure may show the parent alone.

Tested on: not given
Test: not given
Conditions: not given

| SMILES | melting point |
| --- | --- |
| N[C@H]1CCN(c2ccc3c(NC(=O)CCc4ccccc4Cl)c(Cl)ccc3n2)C1 [Example 18, N-[2-[(3S)-3-Amino-1-pyrrolidinyl]-6-chloro-5-quinolinyl]-2-chlorobenzenepropanamide] | 200 to 212 °C |
| O=C(CCc1ccccc1Cl)Nc1c(Cl)ccc2nc(N3CC[C@H](NCCO)C3)ccc12 [Example 19, 2-Chloro-N-[6-chloro-2-[(3S)-3-[(2-hydroxyethyl)amino]-1-pyrrolidinyl]-5-quinolinyl]-benzenepropanamide] | 180 to 182 °C |
| Cc1ccc2c(C(=O)NC[C@H](C)c3ccccc3)c(Cl)ccc2n1 (as salt: hydrochloride) [Example 1, 6-Chloro-2-methyl-N-[(2R)-2-phenylpropyl]-5-quinolinecarboxamide, hydrochloride] | 190 to 192 °C |
| C[C@H](CC(=O)Nc1c(Cl)ccc2nc(NCCNCCO)ccc12)c1ccccc1 (as salt: hydrochloride) [Example 9, (βR)-N-[6-Chloro-2-[[2-[(2-hydroxyethyl)amino]ethyl]amino]-5-quinolinyl]-β-methyl-benzenepropanamide, dihydrochloride] | 178 to 182 °C |
| C[C@H](CC(=O)Nc1c(Cl)ccc2nc(CCCNCCCO)ccc12)c1ccccc1 [Example 7, (βR)-N-[6-Chloro-2-[3-[(3-hydroxypropyl)amino]propyl]-5-quinolinyl]-β-methyl-benzenepropanamide] | 118 to 120 °C |
| Cc1ccc2c(C(=O)NC[C@@H](C)c3ccccc3)c(Cl)ccc2n1 (as salt: hydrochloride) [Example 2, 6-Chloro-2-methyl-N-[(2S)-2-phenylpropyl]-5-quinolinecarboxamide, hydrochloride] | 182 to 185 °C |
| C[C@H](CC(=O)Nc1c(Cl)ccc2nc(N3CC[C@H](NCCCO)C3)ccc12)c1ccccc1 [Example 15, (βR)-N-[6-Chloro-2-[(3S)-3-[(3-hydroxypropyl)amino]-1-pyrrolidinyl]-5-quinolinyl]-β-methyl-benzenepropanamide] | 155 to 158 °C |
| C[C@H](CC(=O)Nc1c(Cl)ccc2nc(N3CC[C@H](NCCO)C3)ccc12)c1ccccc1 (as salt: hydrochloride) [Example 16, (βR)-N-[6-Chloro-2-[(3S)-3-[(2-hydroxyethyl)amino]-1-pyrrolidinyl]-5-quinolinyl]-β-methyl-benzenepropanamide, dihydrochloride] | 177 to 182 °C |
| O=C(CCc1ccc(Cl)cc1Cl)Nc1c(Cl)ccc2nc(N3CCNCC3)ccc12 (as salt: hydrochloride) [Example 11, 2,4-Dichloro-N-[6-chloro-2-(1-piperazinyl)-5-quinolinyl]-benzenepropanamide, dihydrochloride] | 200 °C (dec.) |
| Cc1ccc2c(C(=O)NCCc3ccccc3)c(Cl)ccc2n1 [Example 5, 6-Chloro-2-methyl-N-(2-phenylethyl)-5-quinolinecarboxamide] | 170 to 172 °C |
| O=C(CCc1ccccc1)Nc1c(Cl)ccc2nc(N3CCNCC3)ccc12 [Example 17, N-[6-Chloro-2-(1-piperazinyl)-5-quinolinyl]-benzenepropanamide] | 231 to 234 °C |
| C[C@H](CC(=O)Nc1c(Cl)ccc2nc(N3CCNCC3)ccc12)c1ccccc1 [Example 4, (βR)-N-[6-Chloro-2-(1-piperazinyl)-5-quinolinyl]-β-methyl-benzenepropanamide] | 194 to 196 °C |
| CNCCCN(C)c1ccc2c(NC(=O)C[C@@H](C)c3ccccc3)c(Cl)ccc2n1 (as salt: trifluoroacetate) [Example 3, (βR)-N-[6-Chloro-2-[methyl[3-(methylamino)propyl]amino]-5-quinolinyl]-β-methyl-benzenepropanamide, ditrifluoroacetate] | 159 to 162 °C |
| N[C@H]1CCN(c2ccc3c(C(=O)NCCc4ccccc4Cl)c(Cl)ccc3n2)C1 [Example 21, 2-[(3S)-3-Amino-1-pyrrolidinyl]-6-chloro-N-[2-(2-chlorophenyl)ethyl]-5-quinolinecarboxamide] | 196 to 198 °C |
| C[C@H](CC(=O)Nc1c(Cl)ccc2nc(N3CC[C@H](N)C3)ccc12)c1ccccc1 [Example 13, (βR)-N-[2-[(3S)-3-Amino-1-pyrrolidinyl]-6-chloro-5-quinolinyl]-β-methyl-benzenepropanamide] | 204 to 207 °C |
| O=C(CCc1ccccc1Cl)Nc1c(Cl)ccc2nc(N3CCNCC3)ccc12 (as salt: hydrochloride) [Example 10, 2-Chloro-N-[6-chloro-2-(1-piperazinyl)-5-quinolinyl]-benzenepropanamide, dihydrochloride] | 265 to 270 °C |
| CC(Cc1ccc(Cl)c(Cl)c1)C(=O)Nc1cccc2ncccc12 (stereo not drawn) [Example 8, 3,4-Dichloro-α-methyl-N-5-quinolinyl-benzenepropanamide] | 168 to 170 °C |
| O=C(CCc1ccc(Cl)cc1)Nc1c(Cl)ccc2nc(N3CCNCC3)ccc12 (as salt: hydrochloride) [Example 12, 4-Chloro-N-[6-chloro-2-(1-piperazinyl)-5-quinolinyl]-benzenepropanamide, dihydrochloride] | 183 to 188 °C |

Results, then the compound that gave them:

| melting point | SMILES |
| --- | --- |
| 260 to 262 °C | O=C(NCCc1ccccc1)c1c(Cl)ccc2nc(N3CCC(C(=O)O)CC3)ccc12 [Example 26, 1-[6-Chloro-5-[[(2-phenylethyl)amino]carbonyl]-2-quinolinyl]-4-piperidinecarboxylic acid] |
| 262 to 264 °C | O=C(NCCc1c(Cl)cccc1Cl)c1c(Cl)ccc2nc(N3CCC(C(=O)O)CC3)ccc12 [Example 23, 1-[6-Chloro-5-[[[2-(2,6-dichlorophenyl)ethyl]amino]carbonyl]-2-quinolinyl]-4-piperidinecarboxylic acid] |
| 170 to 172 °C | O=C(NCCc1ccccc1Cl)c1c(Cl)ccc2nc(N3CC[C@H](NCCO)C3)ccc12 [Example 22, 6-Chloro-N-[2-(2-chlorophenyl)ethyl]-2-[(3S)-3-[(2-hydroxyethyl)amino]-1-pyrrolidinyl]-5-quinolinecarboxamide] |
| 231 to 234 °C | O=C(NCCc1ccc(Cl)cc1)c1c(Cl)ccc2nc(N3CCC(C(=O)O)CC3)ccc12 [Example 31, 1-[6-Chloro-5-[[[2-(4-chlorophenyl)ethyl]amino]carbonyl]-2-quinolinyl]-4-piperidinecarboxylic acid] |
| 180 to 185 °C | O=C(NCC(c1ccccc1)c1ccccc1)c1c(Cl)ccc2nc(N3CCC(C(=O)O)CC3)ccc12 (as salt: acetate) [Example 25, 1-[6-Chloro-5-[[(2,2-diphenylethyl)amino]carbonyl]-2-quinolinyl]-4-piperidinecarboxylic acid, acetate] |
| 250 to 253 °C | O=C(NCCc1ccccc1Cl)c1c(Cl)ccc2nc(N3CCC(C(=O)O)CC3)ccc12 [Example 24, 1-[6-Chloro-5-[[[2-(2-chlorophenyl)ethyl]amino]carbonyl]-2-quinolinyl]-4-piperidinecarboxylic acid] |
| 237 to 241 °C | Cc1ccccc1CCNC(=O)c1c(Cl)ccc2nc(N3CCC(C(=O)O)CC3)ccc12 [Example 28, 1-[6-Chloro-5-[[[2-(2-methylphenyl)ethyl]amino]carbonyl]-2-quinolinyl]-4-piperidinecarboxylic acid] |
| 270 to 272 °C | O=C(NCCc1ccccc1F)c1c(Cl)ccc2nc(N3CCC(C(=O)O)CC3)ccc12 [Example 27, 1-[6-Chloro-5-[[[2-(2-fluorophenyl)ethyl]amino]carbonyl]-2-quinolinyl]-4-piperidinecarboxylic acid] |
| 150 to 153 °C | C[C@H](CNC(=O)c1c(Cl)ccc2nc(N3CCC(C(=O)O)CC3)ccc12)c1ccccc1 [Example 29, 1-[6-Chloro-5-[[[(2S)-2-phenylpropyl]amino]carbonyl]-2-quinolinyl]-4-piperidinecarboxylic acid] |

Target: T1, P2X7 receptor (Homo sapiens, UniProt Q99572)
T1 construct: 200 μl of a suspension of THP-1 cells; endogenous in cells; host or cells: THP-1 cells
T1 sequence (Q99572 1-595): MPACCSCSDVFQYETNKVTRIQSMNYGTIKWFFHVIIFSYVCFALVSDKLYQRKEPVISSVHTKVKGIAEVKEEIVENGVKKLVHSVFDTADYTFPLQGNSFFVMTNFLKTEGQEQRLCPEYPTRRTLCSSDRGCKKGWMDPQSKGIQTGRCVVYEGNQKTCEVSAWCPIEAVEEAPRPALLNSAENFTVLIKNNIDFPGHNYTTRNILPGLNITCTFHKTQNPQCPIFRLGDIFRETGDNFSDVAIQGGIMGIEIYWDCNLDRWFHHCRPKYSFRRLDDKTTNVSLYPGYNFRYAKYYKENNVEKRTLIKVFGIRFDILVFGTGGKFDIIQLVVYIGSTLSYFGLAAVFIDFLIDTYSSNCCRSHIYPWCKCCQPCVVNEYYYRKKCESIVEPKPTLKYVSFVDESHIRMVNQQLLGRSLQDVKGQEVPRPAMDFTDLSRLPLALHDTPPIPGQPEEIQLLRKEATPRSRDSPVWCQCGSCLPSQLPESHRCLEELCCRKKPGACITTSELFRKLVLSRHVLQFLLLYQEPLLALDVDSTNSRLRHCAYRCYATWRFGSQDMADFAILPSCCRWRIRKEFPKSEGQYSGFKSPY
Test: bbATP-induced ethidium bromide fluorescence in THP-1 cells, P2X7 receptor antagonist activity
Type: cell-based
Conditions: negative logarithm of concentration reducing bbATP agonist activity by 50%, 10^-5M bbATP, 37° C. one hour
Description: Certain compounds such as benzoylbenzoyl adenosine triphosphate (bbATP) are known to be agonists of the P2X7 receptor, effecting the formation of pores in the plasma membrane (Drug Development Research (1996), 37(3), p. 126). Consequently, when the receptor is activated using bbATP in the presence of ethidium bromide (a fluorescent DNA probe), an increase in the fluorescence of intracellular DNA-bound ethidium bromide is observed. The increase in fluorescence can be used as a measure of P2X7 receptor activation and therefore to quantify the effect of a compound on the P2X7 receptor.
In this manner, each of the title compounds of the Examples was tested for antagonist activity at the P2X7 receptor. Thus, the test was performed in 96-well flat bottomed microtitre plates, the wells being filled with 250 μl of test solution comprising 200 μl of a suspension of THP-1 cells (2.5×10^6 cells/ml) containing 10^−4M ethidium bromide, 25 μl of a high potassium buffer solution containing 10^−5M bbATP, and 25 μl of the high potassium buffer solution containing 3×10^−5M test compound. The plate was covered with a plastics sheet and incubated at 37° C. for one hour. The plate was then read in a Perkin-Elmer fluorescent plate reader, excitation 520 nm, emission 595 nm, slit widths: Ex 15 nm, Em 20 nm. For the purposes of comparison, bbATP (a P2X7 receptor agonist) and pyridoxal 5-phosphate (a P2X7 receptor antagonist) were used separately in the test as controls.

| IC50 [nM] | SMILES |
| --- | --- |
| 794 | O=C(CCc1ccccc1Cl)Nc1c(Cl)ccc2nc(N3CCC(C(=O)O)CC3)ccc12 [Example 20, 1-[6-Chloro-5-[[3-(2-chlorophenyl)-1-oxopropyl]amino]-2-quinolinyl]-4-piperidinecarboxylic acid, potassium salt] |
